{"source": "paper PMC10539439", "about": "(Pharmacological Reports, 2023)", "test": "Blood pressure, 24-h telemetric method, normotensive rats", "assay_type": "in vivo, rat", "settings": "5 mg/kg", "method": "The blood pressure of rats treated with the tested compound was measured for a 24 h period after ip treatment (5 mg/kg b.w.) with a special telemetric system Stellar (TSE-Systems, Germany).\nSurgery: The operation was carried out over 30 min under sterile conditions. Rats were anaesthetized with ketamine and xylasine (intramuscular injection: 100 mg/kg and 10 mg/kg). Before surgery and for 7 days after, the animals were also treated with cefuroxime (20 mg/kg/day) via intramuscular injection and ketoprofen (5 mg/kg/day) via ip injection. […] The transmitter was sutured to the peritoneal cavity.\nThe rats were individually caged for 2 weeks to heal after surgical cut. The animals were then placed in pairs in cages to reduce their isolation stress. Blood pressure was measured: before ip administration of the compounds – time 0 min and 24 h thereafter.", "key": {"[1]": {"settings": "telemetry, after first administration, time 0, n 6"}, "[2]": {"settings": "telemetry, after first administration, time 0.25, n 6"}, "[3]": {"settings": "telemetry, after first administration, time 0.5, n 6"}, "[4]": {"settings": "telemetry, after first administration, time 0.75, n 6"}}}
{"smiles": "N=C(N)N/N=C/c1c(Cl)cc(O)cc1Cl", "note": "[4HOGuanabenz]", "values": [{"measurement": "diastolic pressure, mean", "setting": "rat, time 1.25", "value": 78.5, "unit": "mmHg"}, {"measurement": "systolic pressure, mean", "setting": "rat, time 1.25", "value": 107.3, "unit": "mmHg"}, {"measurement": "diastolic pressure, mean", "setting": "rat, time 1.5", "value": 79.75, "unit": "mmHg"}, {"measurement": "systolic pressure, mean", "setting": "rat, time 1.5", "value": 117.5, "unit": "mmHg"}, {"measurement": "diastolic pressure, mean", "setting": "rat, time 1.75", "value": 80.5, "unit": "mmHg"}, {"measurement": "systolic pressure, mean", "setting": "rat, time 1.75", "value": 111.3, "unit": "mmHg"}, {"measurement": "diastolic pressure, mean", "setting": "rat, time 2", "value": 78.75, "unit": "mmHg"}, {"measurement": "systolic pressure, mean", "setting": "rat, time 2", "value": 117.5, "unit": "mmHg"}, {"measurement": "diastolic pressure, mean", "setting": "rat, time 3", "value": 77, "unit": "mmHg"}, {"measurement": "systolic pressure, mean", "setting": "rat, time 3", "value": 109.8, "unit": "mmHg"}, {"measurement": "diastolic pressure, mean", "setting": "rat, time 4", "value": 80.5, "unit": "mmHg"}, {"measurement": "systolic pressure, mean", "setting": "rat, time 4", "value": 117, "unit": "mmHg"}, {"measurement": "diastolic pressure, mean", "setting": "rat, time 5", "value": 81, "unit": "mmHg"}, {"measurement": "systolic pressure, mean", "setting": "rat, time 5", "value": 116.5, "unit": "mmHg"}, {"measurement": "diastolic pressure, mean", "setting": "rat, time 6", "value": 77.5, "unit": "mmHg"}, {"measurement": "systolic pressure, mean", "setting": "rat, time 6", "value": 119.8, "unit": "mmHg"}, {"measurement": "diastolic pressure, mean", "setting": "rat, time 7", "value": 76.25, "unit": "mmHg"}, {"measurement": "systolic pressure, mean", "setting": "rat, time 7", "value": 117.3, "unit": "mmHg"}, {"measurement": "diastolic pressure, mean", "setting": "rat, time 8", "value": 66.75, "unit": "mmHg"}, {"measurement": "systolic pressure, mean", "setting": "rat, time 8", "value": 113.3, "unit": "mmHg"}, {"measurement": "diastolic pressure, mean", "setting": "rat, time 9", "value": 83.5, "unit": "mmHg"}, {"measurement": "systolic pressure, mean", "setting": "rat, time 9", "value": 131.8, "unit": "mmHg"}, {"measurement": "diastolic pressure, mean", "setting": "rat, time 10", "value": 70.75, "unit": "mmHg"}, {"measurement": "systolic pressure, mean", "setting": "rat, time 10", "value": 120.8, "unit": "mmHg"}, {"measurement": "diastolic pressure, mean", "setting": "rat, time 11", "value": 81.5, "unit": "mmHg"}, {"measurement": "systolic pressure, mean", "setting": "rat, time 11", "value": 125.3, "unit": "mmHg"}, {"measurement": "diastolic pressure, mean", "setting": "rat, time 12", "value": 77.25, "unit": "mmHg"}, {"measurement": "systolic pressure, mean", "setting": "rat, time 12", "value": 123.8, "unit": "mmHg"}, {"measurement": "diastolic pressure, mean", "setting": "rat, time 13", "value": 75.75, "unit": "mmHg"}, {"measurement": "systolic pressure, mean", "setting": "rat, time 13", "value": 113, "unit": "mmHg"}, {"measurement": "diastolic pressure, mean", "setting": "rat, time 14", "value": 73.25, "unit": "mmHg"}, {"measurement": "systolic pressure, mean", "setting": "rat, time 14", "value": 113.5, "unit": "mmHg"}, {"measurement": "diastolic pressure, mean", "setting": "rat, time 15", "value": 77.5, "unit": "mmHg"}, {"measurement": "systolic pressure, mean", "setting": "rat, time 15", "value": 113.3, "unit": "mmHg"}, {"measurement": "diastolic pressure, mean", "setting": "rat, time 16", "value": 79.5, "unit": "mmHg"}, {"measurement": "systolic pressure, mean", "setting": "rat, time 16", "value": 121.8, "unit": "mmHg"}, {"measurement": "diastolic pressure, mean", "setting": "rat, time 17", "value": 88.25, "unit": "mmHg"}, {"measurement": "systolic pressure, mean", "setting": "rat, time 17", "value": 124.5, "unit": "mmHg"}, {"measurement": "diastolic pressure, mean", "setting": "rat, time 18", "value": 76, "unit": "mmHg"}, {"measurement": "systolic pressure, mean", "setting": "rat, time 18", "value": 118.5, "unit": "mmHg"}, {"measurement": "diastolic pressure, mean", "setting": "rat, time 19", "value": 76, "unit": "mmHg"}, {"measurement": "systolic pressure, mean", "setting": "rat, time 19", "value": 117.5, "unit": "mmHg"}, {"measurement": "diastolic pressure, mean", "setting": "rat, time 20", "value": 66, "unit": "mmHg"}, {"measurement": "systolic pressure, mean", "setting": "rat, time 20", "value": 108.8, "unit": "mmHg"}, {"measurement": "diastolic pressure, mean", "setting": "rat, time 21", "value": 70.5, "unit": "mmHg"}, {"measurement": "systolic pressure, mean", "setting": "rat, time 21", "value": 103.3, "unit": "mmHg"}, {"measurement": "diastolic pressure, mean", "setting": "rat, time 22", "value": 74.5, "unit": "mmHg"}, {"measurement": "systolic pressure, mean", "setting": "rat, time 22", "value": 110.3, "unit": "mmHg"}, {"measurement": "diastolic pressure, mean", "setting": "rat, time 23", "value": 75.25, "unit": "mmHg"}, {"measurement": "systolic pressure, mean", "setting": "rat, time 23", "value": 116.3, "unit": "mmHg"}, {"measurement": "diastolic pressure, mean", "setting": "rat, time 24", "value": 72.75, "unit": "mmHg"}, {"measurement": "systolic pressure, mean", "setting": "rat, time 24", "value": 109.5, "unit": "mmHg"}, {"measurement": "diastolic pressure, mean", "setting": "[1]", "value": 80.5, "unit": "mmHg"}, {"measurement": "systolic pressure, mean", "setting": "[1]", "value": 126.2, "unit": "mmHg"}, {"measurement": "diastolic pressure, mean", "setting": "[2]", "value": 92.75, "unit": "mmHg"}, {"measurement": "systolic pressure, mean", "setting": "[2]", "value": 141, "unit": "mmHg"}, {"measurement": "diastolic pressure, mean", "setting": "[3]", "value": 87.5, "unit": "mmHg"}, {"measurement": "systolic pressure, mean", "setting": "[3]", "value": 127.3, "unit": "mmHg"}, {"measurement": "diastolic pressure, mean", "setting": "[4]", "value": 78, "unit": "mmHg"}, {"measurement": "systolic pressure, mean", "setting": "[4]", "value": 115.6, "unit": "mmHg"}]}
